Assay results: US20130184202A1, “Peptide Inhibitors and Methods of Use Thereof” (priority 2011, published 2013)

Experiments:
[1] = test system: RAW cells; assay: iNOS and IL-1β mRNA expression by RT-PCR after BAL treatment; assay type: cell-based; conditions: RAW cells treated with SNO-OE-BAL in the presence of the NF-κB inhibitor
Protocol: RAW cells were treated with BAL prepared from overexpressing mice, either with or without prior transnitrosation with L-SNOC.
RAW cells were treated with OE-BAL or SNO-OE-BAL in the presence and absence of the NF-κB inhibitor caffeic acid phenethyl ester (CAPE).

[2] = target: T1, SP-D multimer (Rattus norvegicus, UniProt P35248); assay: SP-D multimer disruption, native gel electrophoresis and Western blot; assay type: biochemical; conditions: for disruption of the SP-D multimer: RrSP-D, 25 mM, 37° C., 20 minutes, native gel
T1 sequence (P35248 20-374): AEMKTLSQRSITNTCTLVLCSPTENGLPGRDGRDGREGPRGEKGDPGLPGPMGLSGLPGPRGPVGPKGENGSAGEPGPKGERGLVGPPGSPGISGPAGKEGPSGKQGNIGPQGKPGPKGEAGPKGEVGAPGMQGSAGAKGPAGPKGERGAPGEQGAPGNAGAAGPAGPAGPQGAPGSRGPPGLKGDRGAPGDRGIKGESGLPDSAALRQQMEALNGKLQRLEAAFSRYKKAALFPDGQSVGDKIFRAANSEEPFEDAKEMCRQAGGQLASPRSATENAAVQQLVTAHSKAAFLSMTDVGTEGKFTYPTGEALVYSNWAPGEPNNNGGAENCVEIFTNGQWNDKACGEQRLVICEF

[3] = target: T2, RrSP-D (Rattus norvegicus, UniProt P35248); assay: SP-D trimer/structure disruption, SDS-PAGE and Western blot; assay type: biochemical; conditions: for disruption of SP-D structure (specificity): 50 ng RrSP-D, equimolar concentration, non-reducing denaturing SDS-PAGE
T2 sequence (P35248 20-374): T1 sequence (P35248 20-374)
Protocol: FIG. 12A provides a hydrophobicity plot of the designed peptide CJ-1 (SEQ ID NO: 1). CJ-1 was directly derived from SP-D sequence within which cysteine residues are located in the hydrophobic pocket. RrSP-D (50 ng) was incubated with or without CJ-1 (10 mM) or DTT (10 mM) at 37° C. for 20 minutes (FIG. 12B). […] RrSP-D (50 ng) was incubated with different doses of CJ-1 (0.01-10 mM) at 37° C. for 20 minutes.
By matching the reduced cysteines within the peptide to those in the target protein one can specifically disrupt structure. Using 50 ng of RrSP-D the effect of an equimolar concentration of CJ-1, targeted peptide; CJ-2, a scrambled version of CJ-1 with no hydrophobic pocket; or L-cysteine was analyzed. Following incubation SP-D structure was assessed by non-reducing denaturing SDS-PAGE.

[4] = test system: RAW 264.7 cells; assay: Real-time qPCR of pro-inflammatory mediator mRNA (IL-1β, iNOS, ptgs2, CCL2); assay type: cell-based; conditions: 10 μM, 3 hours, without LPS
Protocol: Raw 264.7 cells were incubated with or without CJ-1 (10 μM) or SNO-CJ-1 (10 μM) for 3 hours (FIG. 17A) or incubated with or without CJ-1 (10 μM) or SNO-CJ-1 (10 μM) for 20 minutes and treated with LPS (1 ng/mL) for an additional 3 hours (FIG. 17B). The cells were lysed and total RNA was isolated and subjected to real-time qPCR for mRNA expression of IL-1β, iNOS, ptgs2 and CCL2. SNO-CJ-1 inhibits mRNA expression of pro-inflammatory mediators.

[5] = test system: RAW 264.7 cells; assay: Chemotactic activity, Boydin Chamber; assay type: cell-based; conditions: SNO-SP-D samples treated with 1 μM or 10 μM
Protocol: (§1) RrSP-D was incubated with 100 μM of nitric oxide for 30 minutes to generate SNO-SP-D (FIG. 14A). The resultant protein was incubated with CJ-1 (1 μM or 10 μM). The protein samples were subjected to Biotin-Switch analysis to determine SNO-SP-D content. Lane 1 untreated RrSP-D; Lane 2 NO-treated RrSP-D; Lane 3 NO-treated RrSP-D+1 μM CJ-1; Lane 4 NO-treated RrSP-D+10 μM CJ-1. […] The chemoattractive activity to RAW 264.7 cells was assayed using a Boydin Chamber.

[6] = target: T3, SNO-SP-D (Rattus norvegicus, UniProt P35248); assay: Biotin-Switch analysis of SNO-SP-D content; assay type: biochemical; conditions: NO-treated RrSP-D incubated with 1 μM or 10 μM
T3 sequence (P35248 20-374): T1 sequence (P35248 20-374)
Protocol: as §1

[7] = test system: HIV X4 strain NL4-3; assay: HIV reverse transcriptase (RT) assay in supernatants of infected Jurkat T cells; assay type: cell-based; conditions: NL4-3 preincubated 1 hour at 37° C.; Jurkat T cells infected 16 hours; supernatants day 6 postinfection
Protocol: The HIV X4 strain NL4-3 was preincubated without (control) or with peptide CJ-2 which was a peptide with two cysteines in the hydrophilic domain, peptide CJ-3 which was derived from gp120, or peptide CJ-4 which was derived from gp41 for 1 hour at 37° C. at the concentrations indicated. The Jurkat T cells (0.5×10^6 cell/ml) were infected by NL4-3 (30 ng/ml) for 16 hours and washed. The supernatants at day 6 postinfection was collected and subjected to HIV reverse transcriptase (RT) assay. The data are shown represent the mean±SD of duplicate cultures (FIG. 15D).

[8] = target: HIV gp120 LAV (Human immunodeficiency virus type 1 group M subtype B, UniProt P03377); conditions: preincubated, denatured, SDS PAGE, Coomassie blue
Protocol: Peptides were designed to disrupt HIV gp120 formation. […] HIV gp120 LAV preincubated without (lane 1) or with DTT (lane 2), L-cysteine (lane 3), CJ-3 (lane 4) CJ-4 (lane 5) or CJ-3 and CJ-4 (lane 6) was denatured and subjected to SDS PAGE gel electrophoresis. The resulted proteins were visualized by Coomassie blue staining (FIG. 15C).

| Compound | disruption of the SP-D multimer [2] | disruption of SP-D structure (specificity) [3] | inhibition of HIV (RT activity in supernatants) [7] | disruption of the structure of HIV gp120 LAV [8] | also measured |
| --- | --- | --- | --- | --- | --- |
| O=C(/C=C/c1ccc(O)c(O)c1)OCCc1ccccc1 [CAPE, caffeic acid phenethyl ester] |  |  |  |  | effect on SNO-OE-BAL mediated increase in iNOS expression [1]: completely abrogated the increase in iNOS expression |
| N[C@@H](CSN=O)C(=O)O [L-SNOC, L-S-nitroso-cysteine] | capable of disrupting the SP-D multimer at high concentration |  |  |  | disruption of native SP-D multimers ([2]; BAL from SP-D overexpressing mice or 0.2 μM recombinant SP-D treated with L-SNOC, native electrophoresis, Western blot): disruption of the native multimers to dodecamers and trimers |
| N[C@@H](CS)C(=O)O [L-cysteine, reference compound] | capable of disrupting the SP-D multimer at high concentration | Only CJ-1 is capable of disrupting SP-D structure |  |  |  |
| AEMKSLSQRSVPNTCTLVMCSPTE [CJ-1] |  | capable of disrupting SP-D structure |  |  | induction of transcription of inflammatory genes [4]: capable of inducing transcription of inflammatory genes within macrophages; SNO-SP-D induced RAW 264.7 cell migration [5]: inhibits the ability of SNO-SP-D to induce RAW 264.7 cell migration; SNO-SP-D content (S-nitrosothiol) [6]: depleted S-nitrosothiol from SNO-SP-D; disruption of SP-D, dose dependence ([3]; RrSP-D 50 ng, 0.01-10 mM, 37° C., 20 minutes): disrupts SP-D in a dose-dependent manner; disruption of SP-D trimers ([3]; RrSP-D 50 ng, 10 mM, 37° C., 20 minutes, SDS PAGE, Western blot): disrupts SP-D trimers |
| LVWEDLRNLCLFSYRLLR [CJ-4] |  |  | inhibited HIV | disrupted the structure of HIV gp120 LAV |  |
| VPVWKDAETTLFCASDAK [CJ-3] |  |  | inhibited HIV | disrupted the structure of HIV gp120 LAV |  |
